US20080009418A1, “Selective Inhibitors” (Alchemia LTD., priority 2004, published 2008)

Key:
[1] = molecular target: T1, Mouse urotensin (mUR2) (Mus musculus, UniProt Q8VIH9); assay: Radioligand binding, mouse urotensin mUR2 membranes, FlashPlate, [125I]-Urotensin II; settings: compound at 10 μM, [125I]-Urotensin II
T1 construct: purchased Perkin Elmer Biosignal
T1 sequence (Q8VIH9 1-385): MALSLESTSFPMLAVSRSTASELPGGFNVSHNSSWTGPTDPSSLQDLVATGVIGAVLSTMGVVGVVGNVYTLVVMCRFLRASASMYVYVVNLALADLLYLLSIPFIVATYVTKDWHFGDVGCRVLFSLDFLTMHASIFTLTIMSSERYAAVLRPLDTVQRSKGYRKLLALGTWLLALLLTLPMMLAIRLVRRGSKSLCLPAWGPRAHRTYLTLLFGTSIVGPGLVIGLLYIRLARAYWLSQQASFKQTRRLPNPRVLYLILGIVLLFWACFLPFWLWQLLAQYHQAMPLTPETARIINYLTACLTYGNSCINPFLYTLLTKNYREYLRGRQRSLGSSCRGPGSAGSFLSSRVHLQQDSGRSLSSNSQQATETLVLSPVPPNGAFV
Method in brief: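 Cloned mouse urotensin (mUR2) receptor membranes from Perkin Elmer Biosignal were immobilized in FlashPlate microplates using a proprietary coating. Each well got 19.5 μl buffer, then 0.5 μl of DMSO, reference ligand, or compound. Adding 5 μl of [125I]-Urotensin II, diluted to 5× final concentration in binding buffer, started binding. Plates were sealed with TopSeal-A and incubated 1 hour at room temperature in the dark. Wells were counted for 30 seconds each on a TopCount after a 60-second delay, and percentage inhibition was calculated.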

[2] = molecular target: T2, Human Melanocortin (MC4) (Homo sapiens, UniProt P32245); assay: Radioligand binding, human melanocortin MC4 membranes, FlashPlate, [125I]-NDP-αMSH; settings: compound at 10 μM, [125I]-NDP-αMSH
T2 construct: purchased Perkin Elmer Biosignal
Method in brief: (§1)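 Cloned human receptor membranes were coated onto FlashPlate wells and incubated with radioligand and compound (added from a 0.5 mM DMSO daughter plate) for 1 hour at room temperature in the dark. Scintillation counting gave percent inhibition, with DMSO defining total and reference ligand defining non-specific binding.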

[3] = molecular target: T3, Human melanin-concentrating hormone (MCH1) (Homo sapiens, UniProt Q99705); assay: Radioligand binding, human melanin-concentrating hormone MCH1 membranes, FlashPlate, [125I]-S36057; settings: compound at 10 μM; for A6: inhibition of radioligand binding, human melanin-concentrating hormone (MCH1) / A6 radioligand binding, percentage inhibition: [125I]-S36057
T3 construct: purchased Perkin Elmer Biosignal
Method in brief: as §1

[4] = molecular target: T4, Human Melanocortin (MC3) (Homo sapiens, UniProt P41968); assay: Radioligand binding, human melanocortin MC3 membranes, FlashPlate, [125I]-NDP-αMSH; settings: compound at 10 μM, [125I]-NDP-αMSH
T4 construct: purchased Perkin Elmer Biosignal
Method in brief: as §1

[5] = molecular target: T5, Human neurokinin (NK1) (Homo sapiens, UniProt P25103); assay: Radioligand binding, human neurokinin NK1 membranes, filtration, [125I]-Substance P; settings: compound at 10 μM, [125I]-Substance P
T5 construct: purchased Perkin Elmer Biosignal
Method in brief: (§2)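 Percent inhibition of radioligand binding measured on recombinant human membranes: NK1 with [125I]-Substance P, KOP with [3H]-Diprenorphine. Incubation 1 h at room temperature, then harvest onto 0.3% PEI-soaked filters, cold Tris-HCl pH 7.4 washes and scintillation counting; non-specific binding from reference ligand wells.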

[6] = molecular target: T6, Human μ-opioid (MOP) (Homo sapiens, UniProt P35372); assay: Radioligand binding, human μ-opioid (MOP) membranes, FlashPlate, [3H]-Naloxone; settings: compound at 10 μM, [3H]-Naloxone
T6 construct: purchased Perkin Elmer Biosignal
Method in brief: as §1

[7] = molecular target: T7, Human δ-opioid (DOP) (Homo sapiens, UniProt P41143); assay: Radioligand binding, human δ-opioid (DOP) membranes, FlashPlate, [3H]-Bremazocine; settings: compound at 10 μM, [3H]-Bremazocine
T7 construct: purchased Perkin Elmer Biosignal
Method in brief: as §1

[8] = molecular target: T8, Human κ-Opioid (KOP) (Homo sapiens, UniProt P41145); assay: Radioligand binding, human κ-opioid (KOP) membranes, filtration, [3H]-Diprenorphine; settings: compound at 10 μM, [3H]-Diprenorphine
T8 construct: purchased Perkin Elmer Biosignal
Method in brief: as §2

[9] = molecular target: T9, Human neuropeptide Y (NPY-Y1) (Homo sapiens, UniProt P25929); assay: Radioligand binding, human neuropeptide Y NPY-Y1 membranes, FlashPlate, [125I]-PYY; settings: compound at 10 μM, [125I]-PYY
T9 construct: purchased Perkin Elmer Biosignal
T9 sequence (P25929 1-384): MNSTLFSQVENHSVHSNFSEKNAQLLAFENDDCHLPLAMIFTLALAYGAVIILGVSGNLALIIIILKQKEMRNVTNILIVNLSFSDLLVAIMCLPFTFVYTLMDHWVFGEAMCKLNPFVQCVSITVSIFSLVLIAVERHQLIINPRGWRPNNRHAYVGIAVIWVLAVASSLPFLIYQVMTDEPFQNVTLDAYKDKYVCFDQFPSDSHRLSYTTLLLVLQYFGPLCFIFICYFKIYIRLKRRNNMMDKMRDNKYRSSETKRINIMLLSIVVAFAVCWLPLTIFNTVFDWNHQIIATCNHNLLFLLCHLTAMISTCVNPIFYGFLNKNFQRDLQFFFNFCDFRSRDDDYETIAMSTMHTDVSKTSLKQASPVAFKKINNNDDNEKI
Method in brief: as §1

[10] = molecular target: T10, Human melanocortin (MC5) (Homo sapiens, UniProt P33032); assay: Radioligand binding, human melanocortin MC5 membranes, FlashPlate, [125I]-NDP-αMSH; settings: compound at 10 μM, [125I]-NDP-αMSH
T10 construct: purchased Perkin Elmer Biosignal
Method in brief: as §1

[11] = molecular target: T11, Human opioid (ORL1) (Homo sapiens, UniProt P41146); assay: Radioligand binding, human opioid ORL1 membranes, FlashPlate, [125I]-Nociceptin; settings: compound at 10 μM, [125I]-Nociceptin
T11 construct: purchased Perkin Elmer Biosignal
Method in brief: as §1

T5 sequence (P25103 whole entry): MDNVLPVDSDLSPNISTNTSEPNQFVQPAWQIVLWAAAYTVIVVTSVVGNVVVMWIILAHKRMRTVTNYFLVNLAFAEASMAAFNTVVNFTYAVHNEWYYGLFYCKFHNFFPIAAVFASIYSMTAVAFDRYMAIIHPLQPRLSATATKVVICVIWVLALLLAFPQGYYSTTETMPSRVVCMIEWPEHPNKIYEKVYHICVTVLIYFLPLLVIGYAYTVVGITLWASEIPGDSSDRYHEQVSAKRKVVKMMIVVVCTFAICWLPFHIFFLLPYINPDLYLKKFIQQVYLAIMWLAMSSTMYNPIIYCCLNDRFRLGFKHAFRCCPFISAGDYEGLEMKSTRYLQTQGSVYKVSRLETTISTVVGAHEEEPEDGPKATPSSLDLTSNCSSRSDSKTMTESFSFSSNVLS
T6 sequence (P35372 whole entry): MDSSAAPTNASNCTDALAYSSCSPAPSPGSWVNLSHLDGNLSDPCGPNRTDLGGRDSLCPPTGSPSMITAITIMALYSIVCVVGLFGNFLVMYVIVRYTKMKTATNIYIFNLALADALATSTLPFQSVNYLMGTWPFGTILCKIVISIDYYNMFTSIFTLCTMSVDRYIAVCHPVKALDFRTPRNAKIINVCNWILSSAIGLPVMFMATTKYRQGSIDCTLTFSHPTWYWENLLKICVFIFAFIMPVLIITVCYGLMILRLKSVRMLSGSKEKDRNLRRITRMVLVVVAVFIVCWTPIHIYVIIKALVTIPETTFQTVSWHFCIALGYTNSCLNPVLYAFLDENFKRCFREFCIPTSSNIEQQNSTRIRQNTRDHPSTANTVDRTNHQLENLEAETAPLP
T2 sequence (P32245 whole entry): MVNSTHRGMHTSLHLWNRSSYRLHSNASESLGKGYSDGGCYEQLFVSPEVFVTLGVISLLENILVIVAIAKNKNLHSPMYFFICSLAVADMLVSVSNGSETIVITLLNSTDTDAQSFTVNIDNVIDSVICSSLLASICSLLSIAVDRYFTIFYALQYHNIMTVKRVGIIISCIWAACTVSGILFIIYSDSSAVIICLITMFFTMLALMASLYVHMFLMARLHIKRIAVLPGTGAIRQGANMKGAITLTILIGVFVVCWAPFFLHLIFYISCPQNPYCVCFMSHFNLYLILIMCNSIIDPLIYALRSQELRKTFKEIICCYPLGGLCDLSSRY
T8 sequence (P41145 whole entry): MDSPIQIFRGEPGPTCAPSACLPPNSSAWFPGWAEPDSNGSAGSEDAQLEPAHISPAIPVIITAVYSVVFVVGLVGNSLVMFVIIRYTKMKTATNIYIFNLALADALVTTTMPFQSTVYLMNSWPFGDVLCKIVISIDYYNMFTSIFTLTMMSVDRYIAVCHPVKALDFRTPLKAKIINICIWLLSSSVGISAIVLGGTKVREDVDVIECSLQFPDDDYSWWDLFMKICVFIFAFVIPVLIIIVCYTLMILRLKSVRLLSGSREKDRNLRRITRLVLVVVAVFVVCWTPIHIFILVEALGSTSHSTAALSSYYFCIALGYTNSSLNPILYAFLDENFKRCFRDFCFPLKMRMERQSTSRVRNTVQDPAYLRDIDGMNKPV
T11 sequence (P41146 whole entry): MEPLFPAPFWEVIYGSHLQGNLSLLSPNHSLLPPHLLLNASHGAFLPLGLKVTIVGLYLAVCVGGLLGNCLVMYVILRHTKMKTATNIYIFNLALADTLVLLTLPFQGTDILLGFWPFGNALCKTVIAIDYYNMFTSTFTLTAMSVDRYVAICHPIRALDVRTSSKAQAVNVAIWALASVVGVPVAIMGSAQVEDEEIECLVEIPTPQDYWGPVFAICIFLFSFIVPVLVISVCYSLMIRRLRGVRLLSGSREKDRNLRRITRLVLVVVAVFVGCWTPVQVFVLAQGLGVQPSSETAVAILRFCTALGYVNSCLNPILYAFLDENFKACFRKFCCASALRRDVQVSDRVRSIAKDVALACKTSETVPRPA
T3 sequence (Q99705 whole entry): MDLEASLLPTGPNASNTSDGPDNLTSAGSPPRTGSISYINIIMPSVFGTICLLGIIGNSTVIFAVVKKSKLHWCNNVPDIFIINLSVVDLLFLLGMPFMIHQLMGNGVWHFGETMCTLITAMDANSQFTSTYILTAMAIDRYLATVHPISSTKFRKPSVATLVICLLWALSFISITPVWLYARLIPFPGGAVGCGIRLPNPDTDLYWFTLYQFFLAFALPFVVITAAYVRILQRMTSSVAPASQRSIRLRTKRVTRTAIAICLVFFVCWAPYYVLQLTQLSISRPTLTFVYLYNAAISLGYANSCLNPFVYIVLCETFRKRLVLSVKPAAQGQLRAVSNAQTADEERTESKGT
T10 sequence (P33032 whole entry): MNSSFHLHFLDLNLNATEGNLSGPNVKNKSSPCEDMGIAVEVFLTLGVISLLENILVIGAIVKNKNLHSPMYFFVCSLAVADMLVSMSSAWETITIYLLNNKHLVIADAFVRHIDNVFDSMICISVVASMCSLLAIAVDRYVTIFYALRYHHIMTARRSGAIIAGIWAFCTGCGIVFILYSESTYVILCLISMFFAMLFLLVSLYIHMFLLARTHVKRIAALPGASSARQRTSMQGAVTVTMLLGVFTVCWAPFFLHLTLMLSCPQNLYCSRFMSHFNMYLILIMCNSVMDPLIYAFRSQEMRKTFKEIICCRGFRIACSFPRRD
T7 sequence (P41143 whole entry): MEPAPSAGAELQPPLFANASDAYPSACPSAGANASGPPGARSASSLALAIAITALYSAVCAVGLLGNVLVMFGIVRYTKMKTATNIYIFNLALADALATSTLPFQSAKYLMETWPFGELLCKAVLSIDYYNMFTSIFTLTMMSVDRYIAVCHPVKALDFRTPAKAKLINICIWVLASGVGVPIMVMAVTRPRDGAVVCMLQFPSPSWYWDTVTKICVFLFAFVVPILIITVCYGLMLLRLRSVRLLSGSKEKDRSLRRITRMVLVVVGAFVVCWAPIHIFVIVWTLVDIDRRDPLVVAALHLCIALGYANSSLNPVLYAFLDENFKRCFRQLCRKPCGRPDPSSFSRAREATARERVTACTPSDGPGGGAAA
T4 sequence (P41968 whole entry): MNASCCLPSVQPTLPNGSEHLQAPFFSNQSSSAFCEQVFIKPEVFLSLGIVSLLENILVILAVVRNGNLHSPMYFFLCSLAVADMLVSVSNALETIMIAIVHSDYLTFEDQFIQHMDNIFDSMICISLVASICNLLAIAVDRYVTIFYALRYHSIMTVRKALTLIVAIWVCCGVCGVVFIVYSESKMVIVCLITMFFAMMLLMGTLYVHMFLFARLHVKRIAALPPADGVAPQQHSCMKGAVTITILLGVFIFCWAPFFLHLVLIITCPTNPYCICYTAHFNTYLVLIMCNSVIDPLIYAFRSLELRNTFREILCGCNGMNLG

Row | SMILES | A11: inhibition of radioligand binding, mouse urotensin (mUR2) [1] | A8: inhibition of radioligand binding, human neurokinin (NK1) [5] | A7: inhibition of radioligand binding, human μ-opioid (MOP) [6] | A1: inhibition of radioligand binding, human δ-opioid (DOP) [7] | A9: inhibition of radioligand binding, human neuropeptide Y (NPY-Y1) [9] | A10: inhibition of radioligand binding, human opioid (ORL1) [11] | A11 radioligand binding, percentage inhibition [1] | A4 radioligand binding, percentage inhibition [2] | A6 radioligand binding, percentage inhibition [3] | A3 radioligand binding, percentage inhibition [4] | A8 radioligand binding, percentage inhibition [5] | A7 radioligand binding, percentage inhibition [6] | A1 radioligand binding, percentage inhibition [7] | A2 radioligand binding, percentage inhibition [8] | A9 radioligand binding, percentage inhibition [9] | A5 radioligand binding, percentage inhibition [10] | A10 radioligand binding, percentage inhibition [11] | other results
1 | COC1C(O)C(COCc2ccc3ccccc3c2)OC(OCc2ccc(Cl)cc2)C1NC(=O)CNC(=N)N (stereo not shown) [compound 350] | − (“−” indicates less than 50% inhibition at 10 μM) | + (“+” indicates greater than 50% inhibition at 10 μM) | − (“−” indicates less than 50% inhibition at 10 μM) | − (“−” indicates less than 50% inhibition at 10 μM) | − (“−” indicates less than 50% inhibition at 10 μM) | − (“−” indicates less than 50% inhibition at 10 μM) |  |  |  |  |  |  |  |  |  |  |  | A4: inhibition of radioligand binding, human melanocortin (MC4) [2]: − (“−” indicates less than 50% inhibition at 10 μM); A6: inhibition of radioligand binding, human melanin-concentrating hormone (MCH1) [3]: − (“−” indicates less than 50% inhibition at 10 μM); A3: inhibition of radioligand binding, human melanocortin (MC3) [4]: − (“−” indicates less than 50% inhibition at 10 μM); A2: inhibition of radioligand binding, human κ-opioid (KOP) [8]: − (“−” indicates less than 50% inhibition at 10 μM); A5: inhibition of radioligand binding, human melanocortin (MC5) [10]: + (“+” indicates greater than 50% inhibition at 10 μM)
2 | N=C(N)NCCC(=O)N[C@H]1C(OCc2ccc(Cl)cc2)O[C@H](COCc2ccc3ccccc3c2)[C@@H](O)[C@@H]1OCc1ccc2ccccc2c1 (stereo partly shown) [compound 529] | − (“−” indicates less than 50% inhibition at 10 μM) | + (“+” indicates greater than 50% inhibition at 10 μM) | − (“−” indicates less than 50% inhibition at 10 μM) | − (“−” indicates less than 50% inhibition at 10 μM) | − (“−” indicates less than 50% inhibition at 10 μM) | − (“−” indicates less than 50% inhibition at 10 μM) |  |  |  |  |  |  |  |  |  |  |  | A4: inhibition of radioligand binding, human melanocortin (MC4) ([2]; 10 µM): + (“+” indicates greater than 50% inhibition at 10 μM); A6: inhibition of radioligand binding, human melanin-concentrating hormone (MCH1) ([3]; 10 µM): + (“+” indicates greater than 50% inhibition at 10 μM); A3: inhibition of radioligand binding, human melanocortin (MC3) ([4]; 10 µM): + (“+” indicates greater than 50% inhibition at 10 μM); A2: inhibition of radioligand binding, human κ-opioid (KOP) ([8]; 10 µM): + (“+” indicates greater than 50% inhibition at 10 μM); A5: inhibition of radioligand binding, human melanocortin (MC5) ([10]; 10 µM): + (“+” indicates greater than 50% inhibition at 10 μM)
3 | COCC1OC(OCc2ccccc2)C(NC(=O)CCCNC(=N)N)C(OCc2ccc(-c3ccccc3)cc2)C1O (stereo not shown) [compound 187] |  |  |  |  |  |  | − (“−” indicates less than 50% inhibition at 10 μM) | + (“+” indicates greater than 50% inhibition at 10 μM) | + (“+” indicates greater than 50% inhibition at 10 μM) | − (“−” indicates less than 50% inhibition at 10 μM) | + (“+” indicates greater than 50% inhibition at 10 μM) | − (“−” indicates less than 50% inhibition at 10 μM) | − (“−” indicates less than 50% inhibition at 10 μM) | − (“−” indicates less than 50% inhibition at 10 μM) | − (“−” indicates less than 50% inhibition at 10 μM) | + (“+” indicates greater than 50% inhibition at 10 μM) | − (“−” indicates less than 50% inhibition at 10 μM) | 
4 | N=C(N)NCCC(=O)NC1C(OCc2ccc(Cl)cc2)OC(COCc2ccccc2)C(O)C1OCc1ccc(Cl)cc1 (stereo not shown) [compound 427] |  |  |  |  |  |  |  |  |  |  |  |  |  |  |  |  |  | A11: inhibition of radioligand binding ([1]; mouse mUR2 membranes): − (“−” indicates less than 50% inhibition at 10 μM); A4: inhibition of radioligand binding ([2]; human MC4 membranes): + (“+” indicates greater than 50% inhibition at 10 μM); A6: inhibition of radioligand binding ([3]; [125I]-S36057, human MCH1 membranes): + (“+” indicates greater than 50% inhibition at 10 μM); A3: inhibition of radioligand binding ([4]; human MC3 membranes): + (“+” indicates greater than 50% inhibition at 10 μM); A8: inhibition of radioligand binding ([5]; human NK1 membranes): + (“+” indicates greater than 50% inhibition at 10 μM); A7: inhibition of radioligand binding ([6]; human MOP membranes): − (“−” indicates less than 50% inhibition at 10 μM); A1: inhibition of radioligand binding ([7]; human DOP membranes): − (“−” indicates less than 50% inhibition at 10 μM); A2: inhibition of radioligand binding ([8]; human KOP membranes): − (“−” indicates less than 50% inhibition at 10 μM); A9: inhibition of radioligand binding ([9]; human NPY-Y1 membranes): − (“−” indicates less than 50% inhibition at 10 μM); A5: inhibition of radioligand binding ([10]; human MC5 membranes): + (“+” indicates greater than 50% inhibition at 10 μM); A10: inhibition of radioligand binding ([11]; human ORL1 membranes): + (“+” indicates greater than 50% inhibition at 10 μM)
5 | COCC1OC(OCc2ccccc2)C(NC(=O)CCNC(=N)N)C(OCc2ccccc2)C1O (stereo not shown) [compound 173] |  |  |  |  |  |  | − (“−” indicates less than 50% inhibition at 10 μM) | − (“−” indicates less than 50% inhibition at 10 μM) | − (“−” indicates less than 50% inhibition at 10 μM) | − (“−” indicates less than 50% inhibition at 10 μM) | + (“+” indicates greater than 50% inhibition at 10 μM) | − (“−” indicates less than 50% inhibition at 10 μM) | − (“−” indicates less than 50% inhibition at 10 μM) | − (“−” indicates less than 50% inhibition at 10 μM) | − (“−” indicates less than 50% inhibition at 10 μM) | − (“−” indicates less than 50% inhibition at 10 μM) | − (“−” indicates less than 50% inhibition at 10 μM) | 
